Measured values published in PMC8286840, “Identifying SARS-CoV-2 antiviral compounds by screening for small molecule inhibitors of Nsp3 papain-like protease” (Biochemical Journal, 2021).
Where a name gives a salt, the structure may show the parent alone. Read-outs that look alike come from different tables or passages of the source.

Tests used:
[1] = target: T1, SARS-CoV-2 PLpro (nsp3 1564–1878) (Severe acute respiratory syndrome coronavirus 2, UniProt P0DTD1); assay: biochemical; parameters: FRET-quenched peptide (Pro3) cleavage by PLpro, 10 min pre-incubation, slope over 20 min, normalised to no-compound control; conditions: read-out: % of control remaining
[2] = target: T1, SARS-CoV-2 PLpro (nsp3 1564–1878); assay: biochemical; parameters: FRET-quenched peptide (Pro3) cleavage by PLpro, 10 min pre-incubation, slope over 20 min, normalised to no-compound control; conditions: read-out: % of control remaining; remark: listed apart in the source

CCN(CC)Cc1ccc2cc(COC(=O)Nc3ccc(C(=O)NO)cc3)ccc2c1 [ITF2357 (Givinostat)]
remaining activity at 3.75 µM ([1]; Well no.=5110, high concentration screen): 106% | remaining activity at 1.25 µM ([2]; Well no.=5110, low concentration screen): 102%

CCCCCN(C)CCC(O)(P(=O)(O)O)P(=O)(O)O [Ibandronate sodium salt]
remaining activity at 3.75 µM ([1]; Well no.=6031, high concentration screen): 91.1% | remaining activity at 1.25 µM ([2]; Well no.=6031, low concentration screen): 96.1%

CCCCCN(C)CCC(O)(P(=O)(O)O)P(=O)(O)O [Ibandronate sodium]
remaining activity at 3.75 µM ([1]; Well no.=5363, high concentration screen): 89.7% | remaining activity at 1.25 µM ([2]; Well no.=5363, low concentration screen): 90.7%

CCCCCN(C)CCC(O)(P(=O)(O)O)P(=O)(O)O [Ibandronate]
remaining activity at 3.75 µM ([1]; Well no.=1933, high concentration screen): 102% | remaining activity at 1.25 µM ([2]; Well no.=1933, low concentration screen): 107%

C[S+]([O-])CCCN=C=S (stereo not shown) [Iberin]
remaining activity at 3.75 µM [1]: 90.7% | remaining activity at 1.25 µM [2]: 95.3%

CC(C)C(=O)c1c(C(C)C)nn2ccccc12 [Ibudilast]
remaining activity at 3.75 µM ([1]; Well no.=572, high concentration screen): 96.9% | remaining activity at 3.75 µM ([1]; Well no.=1581, high concentration screen): 90% | remaining activity at 1.25 µM ([2]; Well no.=572, low concentration screen): 98.8% | remaining activity at 1.25 µM ([2]; Well no.=1581, low concentration screen): 89.2%

CC(C)Cc1ccc(CC(=O)O)cc1 [Ibufenac]
remaining activity at 3.75 µM ([1]; Well no.=5479, high concentration screen): 109% | remaining activity at 1.25 µM ([2]; Well no.=5479, low concentration screen): 105%

CC(C)Cc1ccc(C(C)C(=O)O)cc1 (stereo not shown) [Ibuprofen]
remaining activity at 3.75 µM ([1]; Well no.=1901, high concentration screen): 97% | remaining activity at 1.25 µM ([2]; Well no.=1901, low concentration screen): 95.1%

CC(C)Cc1ccc(C(C)C(=O)NO)cc1 (stereo not shown) [Ibuproxam]
remaining activity at 3.75 µM ([1]; Well no.=4091, high concentration screen): 94.9% | remaining activity at 1.25 µM ([2]; Well no.=4091, low concentration screen): 95%

CC(C)(N)C(=O)N[C@H](COCc1ccccc1)C(=O)N1CCC2(CC1)CN(S(C)(=O)=O)c1ccccc12 [Ibutamoren (Mesylate)]
remaining activity at 3.75 µM ([1]; Well no.=6186, high concentration screen): 94.2% | remaining activity at 1.25 µM ([2]; Well no.=6186, low concentration screen): 98.5%

CCCCCCCN(CC)CCCC(O)c1ccc(NS(C)(=O)=O)cc1 (stereo not shown) [Ibutilide fumarate]
remaining activity at 3.75 µM ([1]; Well no.=5096, high concentration screen): 102% | remaining activity at 1.25 µM ([2]; Well no.=5096, low concentration screen): 93.1%

COc1ccc(-c2oc3c(CC=C(C)C)c(O[C@@H]4O[C@H](CO)[C@@H](O)[C@H](O)[C@H]4O)cc(O)c3c(=O)c2O[C@@H]2O[C@@H](C)[C@H](O)[C@@H](O)[C@H]2O)cc1 [Icariin]
remaining activity at 3.75 µM ([1]; Well no.=5200, high concentration screen): 100% | remaining activity at 1.25 µM ([2]; Well no.=5200, low concentration screen): 99.9%

O=C1NC(c2cccc([N+](=O)[O-])c2)=CCN1c1ccccc1O [Icilin]
remaining activity at 3.75 µM ([1]; Well no.=5682, high concentration screen): 83.5% | remaining activity at 1.25 µM ([2]; Well no.=5682, low concentration screen): 83.3%

C#Cc1cccc(Nc2ncnc3cc4c(cc23)OCCOCCOCCO4)c1 [Icotinib]
remaining activity at 3.75 µM ([1]; Well no.=5229, high concentration screen): 88.7% | remaining activity at 1.25 µM ([2]; Well no.=5229, low concentration screen): 92.9%

CC(=O)[C@]1(O)Cc2c(O)c3c(c(O)c2[C@@H](O[C@H]2C[C@H](N)[C@H](O)[C@H](C)O2)C1)C(=O)c1ccccc1C3=O [Idarubicin]
remaining activity at 3.75 µM ([1]; Well no.=574, high concentration screen): 102% | remaining activity at 3.75 µM ([1]; Well no.=1613, high concentration screen): 103% | remaining activity at 1.25 µM ([2]; Well no.=574, low concentration screen): 103% | remaining activity at 1.25 µM ([2]; Well no.=1613, low concentration screen): 102%

COc1cc(C(=O)O)ccc1NC(=O)[C@@H]1N[C@@H](CC(C)(C)C)[C@](C#N)(c2ccc(Cl)cc2F)[C@H]1c1cccc(Cl)c1F [Idasanutlin]
remaining activity at 3.75 µM ([1]; Well no.=7114, high concentration screen): 101% | remaining activity at 3.75 µM ([1]; Well no.=7554, high concentration screen): 93.9% | remaining activity at 1.25 µM ([2]; Well no.=7114, low concentration screen): 101% | remaining activity at 1.25 µM ([2]; Well no.=7554, low concentration screen): 92.9%

c1ccc2c(c1)OCC(C1=NCCN1)O2 (stereo not shown) [Idazoxan hydrochloride]
remaining activity at 3.75 µM ([1]; Well no.=821, high concentration screen): 102% | remaining activity at 1.25 µM ([2]; Well no.=821, low concentration screen): 105%

COC1=C(OC)C(=O)C(CCCCCCCCCCO)=C(C)C1=O [Idebenone]
remaining activity at 3.75 µM ([1]; Well no.=1616, high concentration screen): 99.2% | remaining activity at 3.75 µM ([1]; Well no.=3859, high concentration screen): 105% | remaining activity at 1.25 µM ([2]; Well no.=1616, low concentration screen): 103% | remaining activity at 1.25 µM ([2]; Well no.=3859, low concentration screen): 104%

O=c1[nH]c(=O)n([C@H]2C[C@H](O)[C@@H](CO)O2)cc1I [Idoxuridine]
remaining activity at 3.75 µM ([1]; Well no.=2218, high concentration screen): 102% | remaining activity at 3.75 µM ([1]; Well no.=8851, high concentration screen): 107% | remaining activity at 1.25 µM ([2]; Well no.=2218, low concentration screen): 98.6% | remaining activity at 1.25 µM ([2]; Well no.=8851, low concentration screen): 105%

CC(C(O)c1ccc(O)cc1)N1CCC(Cc2ccccc2)CC1 (stereo not shown) [Ifenprodil tartrate]
remaining activity at 3.75 µM ([1]; Well no.=867, high concentration screen): 103% | remaining activity at 3.75 µM ([1]; Well no.=1685, high concentration screen): 104% | remaining activity at 1.25 µM ([2]; Well no.=867, low concentration screen): 103% | remaining activity at 1.25 µM ([2]; Well no.=1685, low concentration screen): 102%

O=P1(NCCCl)OCCCN1CCCl (stereo not shown) [Ifosfamide]
remaining activity at 3.75 µM ([1]; Well no.=2220, high concentration screen): 98.6% | remaining activity at 1.25 µM ([2]; Well no.=2220, low concentration screen): 97.2%

CC[C@H](C)[C@H](N)C(=O)N1CCC[C@H]1C(=O)N[C@H](C(=O)O)[C@@H](C)CC [Ile-Pro-Ile]
remaining activity at 3.75 µM ([1]; Well no.=5849, high concentration screen): 99.6% | remaining activity at 1.25 µM ([2]; Well no.=5849, low concentration screen): 100%

CNC(=O)[C@H](Cc1c[nH]c2ccccc12)NC(=O)[C@@H](CC(=O)NO)CC(C)C [Ilomastat (GM6001, Galardin)]
remaining activity at 3.75 µM ([1]; Well no.=9030, high concentration screen): 94.4% | remaining activity at 1.25 µM ([2]; Well no.=9030, low concentration screen): 101%

COc1cc(C(C)=O)ccc1OCCCN1CCC(c2noc3cc(F)ccc23)CC1 [Iloperidone]
remaining activity at 3.75 µM ([1]; Well no.=7333, high concentration screen): 91.9% | remaining activity at 1.25 µM ([2]; Well no.=7333, low concentration screen): 102%

Cc1ccc(NC(=O)c2ccc(CN3CCN(C)CC3)cc2)cc1Nc1nccc(-c2cccnc2)n1 [Imatinib]
remaining activity at 3.75 µM ([1]; Well no.=2839, high concentration screen): 102% | remaining activity at 1.25 µM ([2]; Well no.=1611, low concentration screen): 102% | remaining activity at 1.25 µM ([2]; Well no.=2839, low concentration screen): 99.7%

O=C1CCC(c2ccc(-n3ccnc3)cc2)=NN1 [Imazodan]
remaining activity at 3.75 µM ([1]; Well no.=764, high concentration screen): 97.7% | remaining activity at 1.25 µM ([2]; Well no.=764, low concentration screen): 97.3%

N=C(N)SCCc1c[nH]cn1 [Imetit dihydrobromide]
remaining activity at 3.75 µM ([1]; Well no.=779, high concentration screen): 94.6% | remaining activity at 1.25 µM ([2]; Well no.=779, low concentration screen): 94.3%

Cc1nccn1CCC(C(N)=O)(c1ccccc1)c1ccccc1 [Imidafenacin]
remaining activity at 3.75 µM ([1]; Well no.=6377, high concentration screen): 97.6% | remaining activity at 1.25 µM ([2]; Well no.=6377, low concentration screen): 102%

CCOC(=O)[C@H](CCc1ccccc1)N[C@@H](C)C(=O)N1C(=O)N(C)C[C@H]1C(=O)O [Imidapril (hydrochloride)]
remaining activity at 3.75 µM ([1]; Well no.=7686, high concentration screen): 98% | remaining activity at 1.25 µM ([2]; Well no.=7686, low concentration screen): 99.8%

CCOC(=O)[C@H](CCc1ccccc1)N[C@@H](C)C(=O)N1C(=O)N(C)C[C@H]1C(=O)O [Imidapril hydrochloride]
remaining activity at 3.75 µM ([1]; Well no.=5696, high concentration screen): 92.9% | remaining activity at 1.25 µM ([2]; Well no.=5696, low concentration screen): 91.8%

CC(C)Oc1ccc(C(=O)Cn2ccnc2)cc1-n1c(CN2CCN(C(=O)COc3ccc(Cl)cc3)CC2)nc2ccccc2c1=O [Imidazole ketone erastin]
remaining activity at 3.75 µM ([1]; Well no.=6884, high concentration screen): 97% | remaining activity at 1.25 µM ([2]; Well no.=6884, low concentration screen): 95.5%

O=C(O)Cc1cnc[nH]1 [Imidazole-4-acetic acid hydrochloride]
remaining activity at 3.75 µM ([1]; Well no.=620, high concentration screen): 101% | remaining activity at 1.25 µM ([2]; Well no.=620, low concentration screen): 97.6%

CCn1ccnc1CC1COc2ccccc2O1 (stereo not shown) [Imiloxan hydrochloride]
remaining activity at 3.75 µM ([1]; Well no.=1063, high concentration screen): 97% | remaining activity at 1.25 µM ([2]; Well no.=1063, low concentration screen): 97.9%
